PMC8016166, “Identification of a Potent and Selective 5-HT1A Receptor Agonist with In Vitro and In Vivo Antinociceptive Activity” (ACS Chemical Neuroscience, 2020)

Columns and labels:
[1] = biological target: T1, 5-HT2CR (Rattus norvegicus, UniProt P08909); test: Radioligand binding at 5-HT2C on rat frontal cortex membranes; details: for selectivity 5-HT2/5-HT1A: Antilog [pKi (5-HT1AR) – pKi (5-HT2CR)]; for Ki: rat frontal cortex membranes, [3H]mesulergine, read-out: 5-HT2C pKi ± SEM (converted)
T1 construct: from tissue; host or cells: frontal cortex of male Sprague-Dawley rats
T1 sequence (P08909 33-460): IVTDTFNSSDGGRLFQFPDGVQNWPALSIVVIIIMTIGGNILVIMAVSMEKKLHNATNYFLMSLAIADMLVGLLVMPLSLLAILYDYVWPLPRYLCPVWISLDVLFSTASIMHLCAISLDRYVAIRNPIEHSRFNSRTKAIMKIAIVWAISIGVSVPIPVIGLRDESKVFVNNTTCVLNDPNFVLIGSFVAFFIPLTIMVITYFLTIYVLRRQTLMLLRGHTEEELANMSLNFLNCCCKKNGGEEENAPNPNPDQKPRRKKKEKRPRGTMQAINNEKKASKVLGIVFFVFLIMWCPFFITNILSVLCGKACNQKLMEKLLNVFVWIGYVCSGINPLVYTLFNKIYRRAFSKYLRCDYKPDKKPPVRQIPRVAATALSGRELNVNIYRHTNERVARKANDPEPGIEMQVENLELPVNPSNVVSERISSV
Protocol: (§1) Male Sprague–Dawley rats were decapitated and their brains removed and placed on ice. The hippocampi (for the functional 5-HT1A receptor assay) or frontal cortexes (for the competitive 5-HT2A and 5-HT2C receptor assays) were dissected and homogenized with a glass homogenizer in 30 vol. ice-cold TED buffer (50 mMTris-HCl, 1 mM EDTA, 1 mM dithiotheritol, pH 7.4). Next, the homogenate was centrifuged at 21 000g for 30 min at 4 °C. The pellet was suspended in 30 vol TED buffer (pH 7.4) and incubated in a water bath for 10 min at 37 °C to remove endogenous ligands. The suspension was centrifuged again at 21 000g for 30 min at 4 °C. The pellet was resuspended in 30 vol TED buffer (pH 7.4) and the centrifugation step was repeated. The final pellet was suspended in 10 vol 50 mM Tris-HCl (pH 7.4) and stored at −80 °C until use.[47]
(§2) The 5-HT2A assay was performed according to a previously described protocol with some modifications.[48] […] Nonspecific binding was determined in the presence of 10 μM mianserin. For the 5-HT2C assay, the frontal cortex homogenates (250 μg protein/mL) were incubated in triplicate with 1 nM [^3H]mesulergine for 60 min at 36 °C in a 50 mM Tris-HCl (pH 7.4) buffer containing 0.1% ascorbate, 10 mM MgCl2, 10 μM pargyline, 100 nM spiperone, and increasing concentrations (10^–10–10^–5 M) of the compound tested. After incubation, the reaction mixture was deposited onto UniFilter-96 GF/B plates, with the aid of a FilterMate-96 Harvester. The filter plates were presoaked with 0.4% PEI for 1 h. Next, each filter well was washed with 1.75 mL of 50 mM Tris-HCl (pH 7.4) and left to dry on a heating block set to 50 °C for 2 h. Then, 45 μL of Microscint-20 scintillation fluid was added to each filter well and left to equilibrate overnight. The filter-bound radioactivity was counted in a MicroBeta^2 Microplate Counter. Curves were fitted with a one-site sigmoidal dose–response equation and pKi for each compound was calculated with the Cheng-Pursoff equation. Results were analyzed with one-way ANOVA followed by the Bonferroni’s posthoc test. The results are expressed as means ± SEM of three independent experiments.

[2] = biological target: T2, 5-HT2AR (Rattus norvegicus, UniProt P14842); test: Radioligand binding at 5-HT2A on rat frontal cortex membranes; details: for selectivity 5-HT2A/5-HT1A: Antilog [pKi (5-HT1AR) – pKi (5-HT2AR)]; for Ki: read-out: 5-HT2A pKi ± SEM (converted)
T2 construct: from tissue; host or cells: frontal cortex of male Sprague-Dawley rats
Protocol: as §1, §2

[3] = biological target: T3, human 5-HT1AR (Homo sapiens, UniProt P08908); test: Radioligand binding at 5-HT1A in transfected HEK293 cells; details: for Ki / 5-HT1A pKi ± SEM: HEK293 cells transfected with human 5-HT1AR, [3H]-8-OH-DPAT, at least two independent experiments; for Ki: read-out: 5-HT1A pKi ± SEM (converted)
T3 construct: expressed in transfected cells
T3 sequence (P08908 1-422): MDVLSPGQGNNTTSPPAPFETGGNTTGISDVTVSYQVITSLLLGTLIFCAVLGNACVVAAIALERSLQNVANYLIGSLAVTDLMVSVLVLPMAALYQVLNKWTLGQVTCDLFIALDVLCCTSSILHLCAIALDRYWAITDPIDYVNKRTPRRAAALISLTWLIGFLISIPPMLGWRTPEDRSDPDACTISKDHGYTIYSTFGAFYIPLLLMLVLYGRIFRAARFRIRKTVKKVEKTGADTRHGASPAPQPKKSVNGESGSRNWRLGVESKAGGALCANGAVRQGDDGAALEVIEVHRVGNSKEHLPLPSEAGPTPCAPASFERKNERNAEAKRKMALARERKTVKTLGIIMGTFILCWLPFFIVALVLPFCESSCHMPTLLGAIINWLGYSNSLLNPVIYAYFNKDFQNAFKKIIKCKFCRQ
Protocol: HEK293 cells with stable expression of human 5-HT1A, 5-HT6, and 5-HT7b (prepared with the use of Lipofectamine 2000) were grown in Dulbecco’s Modified Eagle Medium (DMEM) containing 10% dialyzed fetal bovine serum (FBS) and 500 μg/mL G418 sulfate. Liver hepatocellular carcinoma Hep-G2 cells were cultured in DMEM enriched by 10% FBS, 2 mM L-glutamine, 100 IU/mL penicillin, and 50 μg/mL streptomycin (all from Sigma-Aldrich Corporation, a division of Merck KGaA, Darmstadt, Germany). Cell lines were maintained at 37 °C in a humidified atmosphere with 5% CO2. For membrane preparation, the cells were subcultured in 150 cm^2 flasks, grown to 90% confluence, washed twice with prewarmed to 37 °C phosphate buffered saline (PBS), and pelleted by centrifugation (200g) in PBS containing 0.1 mM EDTA and 1 mM dithiothreitol. Prior to membrane preparation, pellets were stored at −80 °C.
The cell pellets were thawed and homogenized in 10 volumes of assay buffer using an Ultra Turrax tissue homogenizer and centrifuged twice at 35 000g for 15 min at 4 °C, with incubation for 15 min at 37 °C in between. The composition of the assay buffers was as follows: for 5-HT1AR: 50 mM Tris HCl, 0.1 mM EDTA, 4 mM MgCl2, 10 μM pargyline, and 0.1% ascorbate; for 5-HT6R: 50 mM Tris HCl, 0.5 mM EDTA, and 4 mM MgCl2; for 5-HT7bR: 50 mM Tris HCl, 4 mM MgCl2, 10 μM pargyline, and 0.1% ascorbate. All the assays were incubated in a total volume of 200 μL in 96-well microtiter plates for 1 h at 37 °C, except 5-HT1AR which was incubated at room temperature. The process of equilibration was terminated by rapid filtration through Unifilter plates with a 96-well cell harvester and radioactivity retained on the filters was quantified on a Microbeta plate reader (PerkinElmer, USA). […] Nonspecific binding was defined with 10 μM of 5-HT in 5-HT1AR and 5-HT7R binding experiments, where 10 μM of methiothepine was used in 5-HT6R assays. Each compound was tested in triplicate at 7 concentrations (10^–10–10^–4 M). The results were analyzed with one-way ANOVA followed by the Bonferroni’s posthoc test. The inhibition constants (pKi) were calculated from the Cheng-Prusoff equation.[46] The results were expressed as means of at least two separate experiments.

T2 sequence (P14842 whole entry): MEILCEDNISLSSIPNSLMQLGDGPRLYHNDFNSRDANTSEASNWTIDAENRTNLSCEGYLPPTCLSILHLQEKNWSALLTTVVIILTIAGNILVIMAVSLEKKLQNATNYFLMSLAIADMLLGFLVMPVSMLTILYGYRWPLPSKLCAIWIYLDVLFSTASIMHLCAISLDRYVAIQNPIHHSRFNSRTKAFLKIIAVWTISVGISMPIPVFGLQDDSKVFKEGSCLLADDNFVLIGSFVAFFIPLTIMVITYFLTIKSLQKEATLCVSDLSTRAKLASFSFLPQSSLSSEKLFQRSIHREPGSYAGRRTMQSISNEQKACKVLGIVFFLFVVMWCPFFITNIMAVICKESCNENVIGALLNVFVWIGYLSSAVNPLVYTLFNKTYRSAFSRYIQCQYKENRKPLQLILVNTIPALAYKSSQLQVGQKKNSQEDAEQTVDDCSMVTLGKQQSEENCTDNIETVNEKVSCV

Q: Which results are given for `c1ccc(C2(c3ccccc3)OCC(CNCCOc3ccccc3-c3ccncc3)O2)cc1` (racemic) [rac-1, N-[(2,2-diphenyl-1,3-dioxolan-4-yl)methyl]-2-[2-(pyridin-4-yl)phenoxy]ethan-1-ammonium hydrogenoxalate]?
A: selectivity 5-HT2/5-HT1A [1]: 40; Ki [1]: 363 nM; selectivity 5-HT2A/5-HT1A [2]: 123; Ki [2]: 1120 nM; Ki [3]: 9.12 nM

Q: Which results are given for `Cn1cncc1-c1ccccc1OCCNCC1COC(c2ccccc2)(c2ccccc2)O1` (racemic) [rac-2, N-((2,2-diphenyl-1,3-dioxolan-4-yl)methyl)-2-(2-(1-methyl-1H-imidazol-5-yl)phenoxy)ethan-1-ammonium hydrogenoxalate]?
A: selectivity 5-HT2/5-HT1A [1]: 45; Ki [1]: 331 nM; selectivity 5-HT2A/5-HT1A [2]: 56; Ki [2]: 417 nM; Ki [3]: 7.41 nM

Q: Which results are given for `c1ccc(C2(c3ccccc3)OC[C@@H](CNCCOc3ccccc3-c3ccncc3)O2)cc1` [(R)-1, N-[(2,2-Diphenyl-1,3-dioxolan-4-yl)methyl]-2-[2-(pyridin-4-yl)phenoxy]ethan-1-ammonium hydrogenoxalate]?
A: selectivity 5-HT2/5-HT1A [1]: 204; Ki [1]: 912 nM; selectivity 5-HT2A/5-HT1A [2]: 355; Ki [2]: 1580 nM; 5-HT1A pKi ± SEM [3]: 8.35 ± 0.9

Q: `Cn1cncc1-c1ccccc1OCCNC[C@@H]1COC(c2ccccc2)(c2ccccc2)O1` [(R)-2, N-((2,2-Diphenyl-1,3-dioxolan-4-yl)methyl)-2-(2-(1-methyl-1H-imidazol-5-yl)phenoxy)ethan-1-ammonium hydrogenoxalate] was tested. Which “selectivity 5-HT2/5-HT1A” value [1] did it give?
A: 105

Q: What about the Ki [1] of the same molecule?
A: 1260 nM

Q: And the “selectivity 5-HT2A/5-HT1A” value [2]?
A: 74

Q: What about the Ki [2] of the same molecule?
A: 891 nM

Q: And the Ki [3]?
A: 12 nM

Q: `c1ccc(C2(c3ccccc3)OC[C@H](CNCCOc3ccccc3-c3ccncc3)O2)cc1` [(S)-1, N-[(2,2-Diphenyl-1,3-dioxolan-4-yl)methyl]-2-[2-(pyridin-4-yl)phenoxy]ethan-1-ammonium hydrogenoxalate] was tested. Which “selectivity 5-HT2/5-HT1A” value [1] did it give?
A: 102

Q: And the Ki [1]?
A: 955 nM

Q: And the “selectivity 5-HT2A/5-HT1A” value [2]?
A: 85

Q: What about the Ki [2] of the same molecule?
A: 794 nM

Q: And the “5-HT1A pKi ± SEM” value [3]?
A: 8.03 ± 0.10

Q: How did the “selectivity 5-HT2/5-HT1A” value [1] turn out when `Cn1cncc1-c1ccccc1OCCNC[C@H]1COC(c2ccccc2)(c2ccccc2)O1` [(S)-2, N-((2,2-Diphenyl-1,3-dioxolan-4-yl)methyl)-2-(2-(1-methyl-1H-imidazol-5-yl)phenoxy)ethan-1-ammonium hydrogenoxalate] was run?
A: 78

Q: What about the Ki [1] of the same molecule?
A: 316 nM

Q: And the “selectivity 5-HT2A/5-HT1A” value [2]?
A: 245

Q: What about the Ki [2] of the same molecule?
A: 1000 nM

Q: What about the “binding affinity at 5-HT1AR, (S)-2 vs (R)-2” value [3] of the same molecule?
A: 3 fold

Q: And the Ki [3]?
A: 4.07 nM
